Experimental data published in publication PMC7287882, “Dual miRNases for Triple Incision of miRNA Target: Design Concept and Catalytic Performance” (Molecules, 2020).

Test system: miR-155
Assay: Ribonuclease activity assay with DC or ON and RNase H, miR-155
Assay type: biochemical
Description: It is known that DNA-like antisense oligonucleotides after binding to target RNAs form a substrate for intracellular endonuclease RNases H. RNA hydrolysis in RNA-DNA heteroduplex by RNase H1 occurs at a distance of 6–10 nucleotides from the 5′-end of RNA (approximately one turn of the helix). Our design of the Dual conjugates here was carried out in such a way to ensure that their heteroduplexes with the matching miRNA sequences could serve as potential substrates for RNase H. To achieve that, we ensured that the length of the oligonucleotide recognition motifs A and B within the DC was 8–10 nt, which was expected to be sufficient for interaction and cleavage by RNase H (see Figure 1 and Table 1). As indicated above, a few adenine aromatic basis within each recognition motifs A and B were replaced with 2-aminoadenines to enhance the hybridization ability of the DC with miRNA. […] In order to verify this, as well as to evaluate the ability of RNase H to contribute to the miRNA cleavage catalyzed by DC, we studied the kinetics of the target miRNA cleavage performed (1) by the DC alone; (2) by RNase H, when the target miRNA was hybridized with the nonconjugated Dual oligonucleotide (ON); and (3) by both DC and RNase H present in the same reaction mixture. The study was performed against miR-17, miR-155 and miR-21 using a 20-fold excess of DCs or respective oligonucleotides over the matching miRNA (see Table 1 for sequences).
Figure 6 Cleavage kinetics of 5′-[^32P]-labeled miRNAs by DCs and/or RNase H. (a,d,g). […]
The reaction mixture (10 µL) containing 20 mM Tris-HCl, pH 7.8, 40 mM KCl, 8 mM MgCl2, 1 mM DTT, 0.02 mg/mL BSA, 800 cpm (Cherenkov’s counting) of [^32P]-miRNA, 1 µM unlabeled miRNA, 20 µM either DC or Dual oligonucleotide was incubated at 37 °C for 20 min then RNase H (5 or 100 U/mL) was added and the mixture was further incubated for 48 h. Aliquots were taken at 0, 1, 6, 24 and 48 h then the reaction was quenched, RNA cleavage products were collected and analyzed as described above.

For “ACCCCTAT–linker 1–[GRLRL]2–linker 2–TTAGCATTAA [miRNA-155-DC, Dual oligonucleotide-peptide conjugate targeted to miR-155: catalytic peptide [LRLRG]2 between two 2-aminoadenine-containing oligodeoxyribonucleotides]”, the “maximum extent of cleavage with DC and RNase H relative to DC alone” value was “about 2 fold”, the “total extent of cleavage in the complex with DC relative to the miRNA/ON complex” value (RNase H 5 u/mL) was roughly 1.5 fold and the “maximum extent of cleavage with DC and RNase H” value (miRNA 1 µM, DC 20 µM, buffer (2), 37 °C, plateau) was 75%.
